According to patent EP4796551A1, “ZWITTERIONIC PHOSPHOLIPID COMPOUND AND LIPID NANOPARTICLE CONTAINING THE SAME” (National University Corporation Hokkaido University, priority 2023, dated 2025):

Experiments:
[1] = Particle size, PDI and ζ-potential of mRNA-LNP (Zetasizer Nano ZS); format: physicochemical; settings: mRNA-LNP formulation phospholipid:CL4F6:Chol:PEG-DMG 10:50:40:1.0, Fluc mRNA
Experimental: (§1) Ethanol solutions containing each phospholipid, CL4F6, Chol, and PEG2000-dimirystoylglycerol (PEG-DMG) at the molar ratio of 10:50:40:1.0 were prepared at the total lipid concentration of 16 mM. For fluorescent labeling of LNPs, 0.5 mol% of DiI or DiR was added to the above solutions. The firefly luciferase (Fluc)-encoding mRNA (TriLink) was dissolved in a 25 mM acetate buffer (pH 4.0). LNPs were prepared by mixing the lipids in ethanol and RNA in an aqueous solution using an iLiNP device at a total flow rate (TFR) of 0.5 mL/min and a flow rate ratio (FRR) (RNA flow rate/lipid flow rate) of 3. The nitrogen to phosphate (N/P) ratio was adjusted to 6. Syringe pumps (Harvard apparatus) were used to control the flow rate of the solutions. The resulting LNP solutions were then dialyzed for 2 hours or more at 4 °C against phosphate buffered saline without Ca^2+ and Mg^2+ (PBS(-)) using Spectra/Por 4 dialysis membranes (molecular weight cut-off 12,000-14,000 Da, Spectrum Laboratories). The LNP solutions were concentrated by ultrafiltration using an Amicon Ultra-15 unit (MWCO 100 kDa, Millipore) as needed.
(§2) The ζ-average particle size, polydispersity index (PDI), and ζ-potential of the LNPs were measured by means of a Zetasizer Nano ZS ZEN3600 instrument (Malvern Instruments). The encapsulation efficiency and total concentration of mRNA were measured by a Ribogreen assay according to a conventional method.

[2] = Ribogreen assay, mRNA encapsulation efficiency of LNP; format: physicochemical; settings: mRNA-LNP formulation phospholipid:CL4F6:Chol:PEG-DMG 10:50:40:1.0, Fluc mRNA
Experimental: as §1, §2

[3] = test system: erythrocytes (RBCs); test: Membrane disruption ability of LNP (hemolytic activity); format: cell-based, BALB/c mice; settings: pH 6.0, 37°C, 30 minutes, Fig. 6B
Experimental: In order to use as an index of endosomal escape efficiency of LNP, membrane disruption ability of LNP was evaluated using erythrocytes as a model biological membrane. Specifically, fresh erythrocytes (RBCs) were collected from BALB/c mice and suspended in a buffer solution (10 mM malic acid, 10 mM HEPES, 10 mM MES, and 120 mM NaCl) at pH 5.0, 6.0, or 7.4. The RBC suspension was mixed with the same amount of each LNP suspension (containing DOPE-C8, DOPE, or DSPC as phospholipid) and reacted at 37°C for 30 minutes. Then, the supernatant was collected, absorbance at 545 nm was measured, and hemoglobin leaked from the erythrocytes was quantified. As a positive control, a sample hemolyzed with 0.5 w/v% Triton X-100 was prepared, and as a negative control, a sample not containing LNP was prepared. The ratio of the absorbance of the test sample to the absorbance of the positive control was expressed as % hemolytic activity.

[4] = Lipid polymorphism by 31P NMR method (mixtures with POPC); format: physicochemical
Experimental: In order to examine the interaction between DOPE-Cx and PC and characteristics thereof, lipid polymorphism of the lipid suspension was evaluated by a ^31P NMR method. Since the rotational motion of lipid molecules in a lamellar phase which is a planar structure and a (inverted) hexagonal phase which is a tubular structure receives different restrictions respectively, a specific ^31P NMR spectrum is provided by chemical shift anisotropy. Specifically, the lamellar phase produces a broad […] peak, and the (inverted) hexagonal phase produces a broad […] peak.
First, DOPE or DOPE-C8 and 1-palmitoyl-2-oleoyl-sn-glycero-3-phosphocholine (POPC) were mixed at a predetermined ratio in 400 µL of chloroform (total lipid 16 µmol), and the solvent was removed by a rotary evaporator to form a lipid membrane. The lipid membrane was hydrated with 500 µL of 20 mM HEPES buffer (pH 7.4, 130 mM NaCl) at 60°C. Then, the lipid dispersion was transferred to an NMR tube, and a ^31P NMR spectrum at room temperature was measured by a conventional method using an ECX 400P spectrometer (JEOL Ltd.).

[5] = test system: liver; test: mRNA introduction ability: luciferase activity in the liver after intravenous Fluc mRNA-LNP; format: in vivo, BALB/c mice; settings: 0.01 mg RNA/kg, livers collected 6 hours later
Experimental: as §1, with “The resulting LNP solutions were then dialyzed for 2 hours or more at 4 °C against phosphate buffered saline without Ca^2+ and Mg^2+ (PBS(-)) using Spectra/Por 4 dialysis membranes (molecular weight cut-off 12,000-14,000 Da, Spectrum Laboratories). The LNP solutions were concentrated by ultrafiltration using an Amicon Ultra-15 unit (MWCO 100 kDa, Millipore) as needed.” left out
The mRNA-LNP formulations prepared in the above item (2) were intravenously administered to BALB/c mice at a dose of 0.01 mg RNA/kg, and the livers were collected by a conventional method 6 hours later. […] The supernatant was collected, and […] was measured by a luminometer (Luminescencer-PSN, ATTO Corporation) using Luciferase Assay System (Promega). The protein concentration was determined using a BCA protein assay kit (Pierce). Fluc activity was expressed as relative light units (RLU) per 1 mg of protein.

[6] = test system: liver; test: EGFP expression in the liver after intravenous EGFP mRNA-LNP (CLSM); format: in vivo, BALB/c mice; settings: Fig. 5, LNP containing the phospholipid, 1 mg RNA/kg, 24 hours later, compared with DSPC or DOPE LNP
Experimental: Further, an mRNA-LNP formulation was prepared in the same manner as in the above item (2) except that mRNA encoding EGFP (TriLink) was used as mRNA, and it was intravenously administered to BALB/c mice at a dose of 1 mg RNA/kg. Then, 24 hours later, the liver was collected by a conventional method, and expression of EGFP was observed using a confocal laser scanning microscope (CLSM).

[7] = Lipid polymorphism by SAXS method; format: physicochemical; settings: DOPE-C8 and POPC at a molar ratio of 1:1, Fig. 10
Experimental: In order to identify the phase of the lipid suspension obtained by mixing DOPE-C8 and POPC at a molar ratio of 1:1, measurement by a small-angle X-ray scattering (SAXS) method was performed by a conventional method using a NANO-Viewer apparatus (Rigaku Corporation).

[8] = lipid alone (lipid:POPC=1:0), 20 mM HEPES pH 7.4, room temperature

Compound | Number average particle size (nm) ([1]; Table 1) | PDI ([1]; Table 1) | ζ-potential (mV) ([1]; Table 1) | ζ-average particle size (nm) ([1]; Table 1, N/P 6) | Number average particle size (nm) ([1]; Table 2) | PDI ([1]; Table 2) | ζ-average particle size (nm) ([1]; Table 2) | ζ-potential (mV) ([1]; Table 2) | mRNA encapsulation rate % ([2]; Table 1) [%] | mRNA encapsulation rate % ([2]; Table 2) [%] | membrane disruption activity (hemolytic activity) [3] | lipid phase by 31P NMR spectrum [4, 8] | further results
CCCCCCCC/C=C\CCCCCCCC(=O)OC[C@H](COP(=O)(O)OCCN)OC(=O)CCCCCCC/C=C\CCCCCCCC [DOPE, 1,2-dioleoyl-sn-glycero-3-phosphoethanolamine, reference compound] | 57 | 0.25 | -2.5 | 88 | 67 | 0.13 | 95 | -2.9 | 93.0 | 92.8 | higher membrane disruption activity than the LNP containing DSPC | spectrum derived from the inverted hexagonal phase | lipid phase by 31P NMR spectrum ([4]; lipid:POPC=9:1, 20 mM HEPES pH 7.4, room temperature): transition to the lamellar phase occurred
CCCCCCCC/C=C\CCCCCCCC(=O)OC[C@H](COP(=O)(O)OCCNCCC(=O)OCC(CC)CCCC)OC(=O)CCCCCCC/C=C\CCCCCCCC (stereo partly drawn) [DOPE-C6_β2, (R)-2,3-bis(oleoyloxy)propyl (2-((3-((2-ethylhexyl)oxy)-3-oxopropyl)ammonio)ethyl) phosphate] | – | – | – | – | 73 | 0.07 | 94 | -5.0 | – | 95.7 | – | – | luciferase activity in the liver ([5]; Figs. 3 and 4, LNP containing the phospholipid): highest activity
CCCCCCCC/C=C\CCCCCCCC(=O)OC[C@H](COP(=O)(O)OCCNCCC(=O)OCCCCCCCC)OC(=O)CCCCCCC/C=C\CCCCCCCC [DOPE-C8, (R)-2,3-bis(oleoyloxy)propyl (2-((3-(octyloxy)-3-oxopropyl)ammonio)ethyl) phosphate] | 62 | 0.21 | -5.6 | 94 | – | – | – | – | 92.6 | – | higher membrane disruption activity than the LNP containing DSPC | spectrum derived from the inverted hexagonal phase | Number average particle size (nm) ([1]; Table 3): 55 nm; PDI ([1]; Table 3): 0.17; ζ-average particle size (nm) ([1]; Table 3): 80 nm; ζ-potential (mV) ([1]; Table 3): -12.8 mV; expression of EGFP in the liver [6]: significantly higher expression of EGFP; mRNA encapsulation rate % ([2]; Table 3): 97.6%; luciferase activity in the liver ([5]; Fig. 2, n=3, LNP containing the phospholipid): highest activity; phase of the lipid suspension by SAXS [7]: Im3m type inverse bicontinuous cubic phase; lipid phase by 31P NMR spectrum ([4]; POPC content increased beyond 1:1, Fig. 7B): the peak derived from the lamellar phase became stronger in a POPC content-dependent manner; lipid phase by 31P NMR spectrum ([4]; lipid:POPC molar ratio 1:1, 20 mM HEPES pH 7.4, room temperature): sharp peak centered at 0 ppm
